In ChEMBL document CHEMBL1130644, “Synthesis of C-ring aromatic taxoids and evaluation of their multi-drug resistance reversing activity” (1998):

What was measured:
Type in all cases: functional, Homo sapiens
[1] = Compound was evaluated for enhancing effect on vincristine accumulation in ovarian MDR cancer cells (2780AD) at concentration of 1.0 ug/mL.
[2] = Compound was evaluated for enhancing effect on vincristine accumulation in ovarian MDR cancer cells (2780AD) at concentration of 10 ug/mL.
[3] = 62 Compound was evaluated for enhancing effect on vincristine accumulation in ovarian MDR cancer cells (2780AD) at concentration of 1.0 ug/mL.

Structure (SMILES)	Activity [1]	Activity [2]	Activity [3]
COc1cccc2c1[C@H](O)[C@]1(O)CC(=O)C(C)=C([C@@H](Sc3ccccc3)[C@@H]2OCCO)C1(C)C	112%	171%	–
COc1cccc2c1[C@H](OCc1ccccc1)[C@]1(O)CC(=O)C(C)=C([C@@H](Sc3ccccc3)[C@@H]2OCCOCc2ccccc2)C1(C)C	106%	211%	–
COc1cccc2c1[C@H](O)[C@]1(O)CC(=O)C(C)=C(C[C@@H]2OCCO)C1(C)C	111%	124%	–
CC1=C2[C@@H](Sc3ccccc3)[C@H](OCCOCc3ccccc3)c3cccc(O)c3[C@H](OCc3ccccc3)[C@](O)(CC1=O)C2(C)C	106%	142%	–
COc1cccc2c1[C@H](O)[C@]1(O)CC(=O)C(C)=C([C@@H](Sc3ccccc3)[C@@H]2OCCBr)C1(C)C	93%	166%	–
COc1cccc2c1[C@H](O)[C@]1(O)CC(O)C(C)=C([C@@H](Sc3ccccc3)[C@@H]2OCCO)C1(C)C (stereo partly specified)	–	144%	109%
CC1=C2[C@@H](Sc3ccccc3)[C@H](OCCO)c3cccc(O)c3[C@H](OCc3ccccc3)[C@](O)(CC1=O)C2(C)C	238%	569%	–
COc1cccc2c1[C@H](O)[C@]1(O)CC(=O)C(C)=C([C@@H](Sc3ccccc3)[C@@H]2OCCOCc2ccccc2)C1(C)C	140%	256%	–
